Source: US8580965B2, “Substituted sulfonamide compounds” (Gruenenthal GmbH, priority 2006, dated 2013)
Where a name gives a salt, the structure may show the parent alone.

Key:
[1] = target: T1, human B1R receptor (bradykinin 1 receptor) (Homo sapiens, UniProt P46663); assay: FLIPR Ca2+ assay (Fluo-4) on CHO K1 cells stably transfected with the human B1R gene; % activation and % inhibition at 10 μM; format: cell-based; details: CHO-K1, test substance 10 μM; CHO K1 hB1R cells; Ca2+ inflow after 0.5 nM Lys-Des-Arg9-bradykinin; read-out: B1R antagonism, human [10 μM] % inhibition
T1 construct: host or cells: CHO K1 cells (hB1R cells)
T1 sequence (P46663 1-353): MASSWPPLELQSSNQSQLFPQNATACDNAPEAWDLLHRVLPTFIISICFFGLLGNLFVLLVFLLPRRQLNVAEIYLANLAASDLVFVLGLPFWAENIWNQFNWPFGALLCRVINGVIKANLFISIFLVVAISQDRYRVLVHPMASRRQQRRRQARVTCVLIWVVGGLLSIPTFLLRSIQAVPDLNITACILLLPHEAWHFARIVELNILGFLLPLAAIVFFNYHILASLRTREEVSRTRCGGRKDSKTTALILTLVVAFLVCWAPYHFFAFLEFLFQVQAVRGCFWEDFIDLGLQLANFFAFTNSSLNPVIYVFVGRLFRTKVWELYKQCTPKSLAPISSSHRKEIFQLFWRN
Outline: (§1)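 Fluo-4 Ca2+ flux on FLIPR in stable hB1R or rB1R CHO K1 lines, two additions. Agonism: 10 µM compound versus 0.5 nM Lys-Des-Arg9-BK (human) or 100 nM Des-Arg9-BK (rat); antagonism: same agonists applied 10 min later, suppression expressed against maximum achievable inhibition.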

[2] = target: T2, B1R receptor of the rat (bradykinin 1 receptor) (Rattus norvegicus, UniProt P97583); assay: FLIPR Ca2+ assay (Fluo-4) on CHO K1 cells stably transfected with the B1R gene of the rat; % activation and % inhibition at 10 μM; format: cell-based; details: CHO-K1, test substance 10 μM; CHO K1 rB1R cells; Ca2+ inflow after 100 nM Des-Arg9-bradykinin; read-out: B1R antagonism, rat [10 μM] % inhibition
T2 construct: host or cells: CHO K1 cells (rB1R cells)
T2 sequence (P97583 1-337): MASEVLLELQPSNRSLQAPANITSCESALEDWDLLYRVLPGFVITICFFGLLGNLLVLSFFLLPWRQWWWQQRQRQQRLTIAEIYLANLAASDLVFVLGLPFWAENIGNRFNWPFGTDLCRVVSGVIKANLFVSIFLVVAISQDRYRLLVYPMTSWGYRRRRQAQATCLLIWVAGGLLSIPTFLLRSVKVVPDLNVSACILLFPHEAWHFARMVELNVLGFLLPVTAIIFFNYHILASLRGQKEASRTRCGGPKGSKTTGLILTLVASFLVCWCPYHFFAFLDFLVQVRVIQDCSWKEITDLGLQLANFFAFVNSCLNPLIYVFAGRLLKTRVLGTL
Outline: as §1

| inhibition at 10 µM [1] | inhibition at 10 µM [2] | Structure (SMILES) |
| --- | --- | --- |
| 50.5% | 46.2% | O=C(COCC1CCCCN1S(=O)(=O)c1cccc(C(F)(F)F)c1)N1CCC(O)(c2ccccn2)CC1 (stereo not shown) [Example 96, 1-(4′-hydroxy-3′,4′,5′,6′-tetrahydro-2′H-[2,4′]bipyridinyl-1′-yl)-2-[1-(3-trifluoromethyl-phenylsulfonyl)-piperidin-2-ylmethoxy]-ethanone] |
| 35.4% | 43.2% | Cc1ccc(F)cc1S(=O)(=O)N(C)CCOCC(=O)N1CCC(O)(c2ccccn2)CC1 [Example 97, 5-fluoro-N-{2-[2-(4′-hydroxy-3′,4′,5′,6′-tetrahydro-2′H-[2,4′]bipyridinyl-1′-yl)-2-oxo-ethoxy]-ethyl}-2,N-dimethyl-phenylsulfonamide] |
| 29.1% | 31.9% | O=C(COC1CCN(S(=O)(=O)c2c(Cl)cc(Cl)cc2Cl)C1)N1CCC(O)(c2ccccn2)CC1 (stereo not shown) [Example 98, 1-(4′-hydroxy-3′,4′,5′,6′-tetrahydro-2′H-[2,4′]bipyridinyl-1′-yl)-2-[1-(2,4,6-trichloro-phenylsulfonyl)-pyrrolidin-3-yloxy]-ethanone] |
| -22.9% | -12.4% | O=C(COCC1Cc2ccccc2N1S(=O)(=O)c1ccc(Cl)c(Cl)c1)N1CCC(O)(Cc2ccccc2)CC1 (stereo not shown) [Example 99, 1-(4-benzyl-4-hydroxy-piperidin-1-yl)-2-[1-(3,4-dichloro-phenylsulfonyl)-2,3-dihydro-1H-indol-2-ylmethoxy]-ethanone] |
| -6.26% | -0.67% | O=C(COCC1Cc2ccccc2N1S(=O)(=O)c1ccc(Cl)c(Cl)c1)N1CCC(O)(c2cccnc2)CC1 (stereo not shown) [Example 100, 2-[1-(3,4-dichloro-phenylsulfonyl)-2,3-dihydro-1H-indol-2-ylmethoxy]-1-(4′-hydroxy-3′,4′,5′,6′-tetrahydro-2′H-[3,4′]bipyridinyl-1′-yl)-ethanone] |
| 102% | 85.4% | Cc1cc(C)c(S(=O)(=O)N2Cc3ccccc3CC2COCC(=O)N2CCC(O)(c3ccccc3)CC2)c(C)c1 (stereo not shown) [Example 101, 1-(4-hydroxy-4-phenylpiperidin-1-yl)-2-((2-(mesitylsulfonyl)-1,2,3,4-tetrahydroisoquinolin-3-yl)methoxy)ethanone] |
| 14.2% | 16.1% | CN(CCOCC(=O)N1CCC(O)(c2cccnc2)CC1)S(=O)(=O)c1ccc(Cl)s1 [Example 102, 5-chloro-thiophene-2-sulfonic acid {2-[2-(4′-hydroxy-3′,4′,5′,6′-tetrahydro-2′H-[3,4′]bipyridinyl-1′-yl)-2-oxo-ethoxy]-ethyl}-methyl-amide] |
| -9.25% | 19.3% | CN(CCOCC(=O)N1CCC(O)(c2ccccn2)CC1)S(=O)(=O)c1ccc(Cl)s1 [Example 103, 5-chloro-thiophene-2-sulfonic acid {2-[2-(4′-hydroxy-3′,4′,5′,6′-tetrahydro-2′H-[2,4′]bipyridinyl-1′-yl)-2-oxo-ethoxy]-ethyl}-methyl-amide] |
| 99.7% | 95.8% | Cc1cc(Cl)cc(Cl)c1S(=O)(=O)N(C)CCOCC(=O)N1CCC(O)(c2ccc(Cl)cc2)CC1 [Example 104, 2,4-dichloro-N-(2-(2-(4-(4-chlorophenyl)-4-hydroxypiperidin-1-yl)-2-oxoethoxy)ethyl)-N,6-dimethylphenylsulfonamide] |
| 98.6% | 96.1% | Cc1cc(Cl)cc(Cl)c1S(=O)(=O)N(C)CCOCC(=O)N1CCC(O)(c2ccccc2)CC1 [Example 105, 2,4-dichloro-N-(2-(2-(4-hydroxy-4-phenylpiperidin-1-yl)-2-oxoethoxy)ethyl)-N,6-dimethylphenylsulfonamide] |
| 97.8% | 96.1% | Cc1cc(Cl)cc(Cl)c1S(=O)(=O)N(C)CCOCC(=O)N1CCC(O)(Cc2ccccc2)CC1 [Example 106, N-{2-[2-(4-benzyl-4-hydroxy-piperidin-1-yl)-2-oxo-ethoxy]-ethyl}-2,4-dichloro-6,N-dimethyl-phenylsulfonamide] |
| 75.5% | 71.9% | O=C(COC1CCN(S(=O)(=O)c2c(Cl)cc(Cl)cc2Cl)C1)N1CCC(O)(c2ccc(Cl)cc2)CC1 (stereo not shown) [Example 107, 1-(4-(4-chlorophenyl)-4-hydroxypiperidin-1-yl)-2-(1-(2,4,6-trichlorophenylsulfonyl)pyrrolidin-3-yloxy)ethanone] |
| 54.8% | 54.5% | O=C(COC1CCN(S(=O)(=O)c2c(Cl)cc(Cl)cc2Cl)C1)N1CCC(O)(c2ccccc2)CC1 (stereo not shown) [Example 108, 1-(4-hydroxy-4-phenylpiperidin-1-yl)-2-(1-(2,4,6-trichlorophenylsulfonyl)pyrrolidin-3-yloxy)ethanone] |
| 103% | 82.5% | O=C(COC1CCN(S(=O)(=O)c2c(Cl)cc(Cl)cc2Cl)C1)N1CCC(O)(Cc2ccccc2)CC1 (stereo not shown) [Example 109, 1-(4-benzyl-4-hydroxy-piperidin-1-yl)-2-[1-(2,4,6-trichloro-phenylsulfonyl)-pyrrolidin-3-yloxy]-ethanone] |
| 97.8% | 85.9% | Cc1cc(S(=O)(=O)N2CCCCC2CCC(=O)N2CCC(O)(c3cccnc3)CC2)c(C)cc1Cl (stereo not shown) [Example 111, 3-(1-(4-chloro-2,5-dimethylphenylsulfonyl)piperidin-2-yl)-1-(4-hydroxy-4-(pyridin-3-yl)piperidin-1-yl)propan-1-one hydrochloride] |
| 106% | 101% | COc1cc(C)c(S(=O)(=O)N2CCCCC2CCC(=O)N2CCC(O)(c3cccnc3)CC2)c(C)c1 (stereo not shown) [Example 112, 1-(4-hydroxy-4-(pyridin-3-yl)piperidin-1-yl)-3-(1-(4-methoxy-2,6-dimethylphenylsulfonyl)piperidin-2-yl)propan-1-one] |
| 94.8% | 51.1% | Cc1cc(S(=O)(=O)N(C)CCCC(=O)N2CCC(O)(c3cccnc3)CC2)c(C)cc1Cl [Example 113, 4-chloro-N-(4-(4-hydroxy-4-(pyridin-3-yl)piperidin-1-yl)-4-oxobutyl)-N,2,5-trimethylphenylsulfonamide hydrochloride] |
| 55.2% | 44.3% | CN(CCCC(=O)N1CCC(O)(c2cccnc2)CC1)S(=O)(=O)c1ccc2ccccc2c1 [Example 115, N-(4-(4-hydroxy-4-(pyridin-3-yl)piperidin-1-yl)-4-oxobutyl)-N-methylnaphthalene-2-sulfonamide] |
| 84.8% | 24.2% | O=C(CCC1CCCCN1S(=O)(=O)c1ccc2ccccc2c1)N1CCC(O)(c2cccnc2)CC1 (stereo not shown) [Example 117, 1-(4-hydroxy-4-(pyridin-3-yl)piperidin-1-yl)-3-(1-(naphthalen-2-ylsulfonyl)piperidin-2-yl)propan-1-one] |
| 101% | 97.9% | O=C(CCC1CCCCN1S(=O)(=O)c1ccc(Cl)cc1Cl)N1CCC(O)(c2cccnc2)CC1 (stereo not shown) [Example 118, 3-(1-(2,4-dichlorophenylsulfonyl)piperidin-2-yl)-1-(4-hydroxy-4-(pyridin-3-yl)piperidin-1-yl)propan-1-one] |
